In brackets after ≈: the same amount, converted by molar mass.
Tests used:
Experiment in all cases: MIC by broth microdilution (NCCLS M7-A4)
Assay type in all cases: cell-based
M catarrhalis A894 = conditions: cation-adjusted Mueller-Hinton Broth, pH 7.2-7.3
Method: (§1) These assays have been performed following the description given in “Methods for dilution Antimicrobial Susceptibility Tests for Bacteria that Grow Aerobically, 4th ed.; Approved standard: NCCLS Document M7-A4; National Committee for Clinical Laboratory Standards Villanova, Pa., USA, 1997”. Minimal inhibitory concentrations (MICs; mg/l) were determined in cation-adjusted Mueller-Hinton Broth (BBL) by a microdilution method following NCCLS guidelines (National Committee for Clinical Laboratory Standards. Methods for Dilution Antimicrobial Susceptibility). The pH of the test medium was 7.2-7.3. All the above Examples were tested against several Gram positive and Gram negative bacteria.

S. aureus A798 = conditions: Staphylococcus aureus, cation-adjusted Mueller-Hinton Broth, pH 7.2-7.3
Method: as §1

S Pneunoniae 49619 = conditions: cation-adjusted Mueller-Hinton Broth, pH 7.2-7.3
Method: as §1

In the case of `CC(=O)NC[C@H]1CN(c2ccc(OC[C@]3(O)C[C@H]4COc5c(c(F)cc6c(=O)c(C(=O)O)cn(C7CC7)c56)N4C3)c(F)c2)C(=O)O1` [Example 2, (13S,16S)-16-{4-[(5S)-5-(acetylamino-methyl)-2-oxo-oxazolidin-3-yl]-2-fluoro-phenoxymethyl}-1-cyclopropyl-7-fluoro-16-hydroxy-4-oxo-1,4,13,15,16,17-hexahydro-12H-11-oxa-1,14-diaza-cyclopenta[a]phenanthrene-3-carboxylic acid], the MIC (M catarrhalis A894) was ≤ 0.063 µg/mL, the MIC (S. aureus A798) was ≤ 0.063 µg/mL and the MIC (S Pneunoniae 49619) was ≤ 0.063 µg/mL.
`O=C(O)c1cn(C2CC2)c2c3c(c(F)cc2c1=O)N1C[C@](O)(COc2ccc(N4C[C@H](Cn5ccnn5)OC4=O)cc2F)C[C@@H]1CO3` [Example 4, (13R,16S)-1-cyclopropyl-7-fluoro-16-[2-fluoro-4-((5R)-2-oxo-5-[1,2,3]triazol-1-ylmethyl-oxazolidin-3-yl)-phenoxymethyl]-16-hydroxy-4-oxo-1,4,13,15,16,17-hexahydro-12H-11-oxa-1,14-diaza-cyclopenta[a]phenanthrene-3-carboxylic acid] was tested, and the MIC (M catarrhalis A894) was 0.25 µg/mL (≈ 0.384 µM), the MIC (S. aureus A798) was ≤ 0.063 µg/mL and the MIC (S Pneunoniae 49619) was ≤ 0.063 µg/mL.
`O=C(O)c1cn(C2CC2)c2c3c(c(F)cc2c1=O)N1C[C@](O)(COc2ccc(N4C[C@H](Cn5ccnn5)OC4=O)cc2F)C[C@H]1CO3` [Example 1, (13S,16S)-1-cyclopropyl-7-fluoro-16-[2-fluoro-4-((5R)-2-oxo-5-[1,2,3]triazol-1-ylmethyl-oxazolidin-3-yl)-phenoxymethyl]-16-hydroxy-4-oxo-1,4,13,15,16,17-hexahydro-12H-11-oxa-1,14-diaza-cyclopenta[a]phenanthrene-3-carboxylic acid] was tested, and the MIC (M catarrhalis A894) was ≤ 0.063 µg/mL, the MIC (S. aureus A798) was ≤ 0.063 µg/mL and the MIC (S Pneunoniae 49619) was ≤ 0.063 µg/mL.

— patent US20100222302A1, “Novel Antibacterial Compounds” (priority 2005, published 2010)
